Assay results as given in article PMC9504208, “Comprehensive Study of Antiretroviral Drug Permeability at the Cervicovaginal Mucosa via an In Vitro Model” (Pharmaceutics, 2022).
Where two headings read alike, the source gives them in different places.

Key:
[1] = tested on: drug transporter mRNA expression in HEC-1A cells; assay: Drug transporter mRNA expression (RT-qPCR) in stimulated HEC-1A cells; format: cell-based, human
Description: (§1) Control was 0.1% DMSO with no drug. Cytokines were reconstituted in sterile and distilled water and added individually to cell cultures at the following concentrations: TNF-α (200 pg/mL), IL-1β (8 ng/mL), IL-6 (5 ng/mL) and IL-8 (100 ng/mL) were. […] Cells were stimulated for either drugs, cytokines or hormones for 72 h, before harvesting by centrifugation at 300× g for 10 min at 4 °C. For Lactobacillus crispatus a final MoI of 10 was used (10:1, bacterial cells:mammalian cell ratio) for co-culture in both HEC-1A and VK2/E6E7 cell lines. For Candida albicans, a final MoI of 1 for HEC-1A cells and 0.25 for VK2/E6E7 cells was used. Cells were incubated with fungal cells at 37 °C/5% CO2 for 24 h. All cell line stimulation experiments were conducted as a minimum of three biological repeats.
(§2) RNA extraction was performed using the RNeasy® Mini Kit (Qiagen, Manchester, UK). Cells were lysed by suspension in 600 μL of RLT Buffer with 1% β-mercaptoethanol (Sigma-Aldrich) and mechanical lysis into a QIAshredder (Qiagen). After the addition of 70% ethanol, the solution was loaded onto RNeasy columns for RNA purification as per the manufacturer’s instructions. DNase treatment was 15 min at room temperature. RNA was eluted from the columns with 30 μL of RNase-free ddH2O. Tapestation analysis was performed using an Agilent 2200 Tapestation system to determine the integrity of the RNA.
(§3) Synthesis of cDNA was performed using a Superscript® VILO™ kit (Life Technologies, Paisley, UK). Reverse transcription was performed at 25 °C for 10 min, 42 °C for 60 min and 85 °C for 5 min. The cDNA was then stored at −20 °C until RT-PCR assays.
(§4) SYBRgreen® PrecisionTM 2× qPCR Mastermix with ROX quencher (Primer Design, Southampton, UK) was used for all RT-qPCR assays. Individual primers were designed to target the HPRT1 and RPLP0 housekeeper genes (selected from an initial panel based on SD scores as a measure of the consistency of expression amongst all samples) in addition to seventeen ARV-associated drug transporters (9 ABC transporters and 8 SLC transporters) replicating the system contained in the TaqMan® 96-well Drug Transporter Array system (Life Technologies, Paisley, UK). Real-time quantitative PCR was performed using the 7900HT Fast Real-Time PCR system and data was analysed using the SDS 2.4 software (Applied Biosystems, Waltham, MA, USA). Cycling conditions were: 95 °C for 5 min, followed by 40 cycles of denaturation at 95 °C for 10 s, annealing at 60 °C for 10 s and extension at 72 °C for 10 s. Relative transcript levels in drug-stimulated cells were determined using the comparative Ct method (ΔΔCt method). Fold-change values of ±2–3 were considered minor, ±3–5 as moderate and >±5 as high.

[2] = tested on: drug transporter mRNA expression in VK2/E6E7 cells; assay: Drug transporter mRNA expression (RT-qPCR) in stimulated VK2/E6E7 cells; format: cell-based, human; details: 72 h hormone stimulation, vs ethanol control, increased
Description: as §1, §2, §3, §4

HEC-1A monolayer = assay: Darunavir transfer across low-pH-adapted HEC-1A monolayers at apical pH 7.5 or 5.5 (LC-MS/MS); format: in vitro ADME, human; details: for % of darunavir transferred to the receiver compartment, absorptive direction: 2 h, n = 10
[3] = Bi-directional permeability (Papp) across HEC-1A dual chamber (Transwell) barrier model; format: in vitro ADME; details: human
Description: The apical chambers of 12-well polycarbonate and polyester systems (Corning Costar Corp, Cambridge, UK) were seeded with different densities of HEC-1A cells in 500 µL of the medium while 1500 µL culture medium was added to the basolateral chamber. -Medium in both chambers was changed every 48–72 h.

HEC-1A cells = assay: Cell-associated drug and distribution between apical and basolateral compartments after absorptive permeability assay; format: in vitro ADME, human; details: for Cell-associated drug (HEC-1A cells): after absorptive permeability assays;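 for all read-outs here: transwell transport run over 2 h at 37 °C, radiolabelled drug quantified by liquid scintillation counting, with insert membranes also counted for mass balance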
HEC-1A barrier model = assay: Permeability of labelled drug across HEC-1A model on coadministration with a second ARV; format: in vitro ADME, human; details: labelled drug 10 µM; for Absorptive permeability on coadministration with dapivirine: dapivirine 0–10 µM
HEC-1A cell layers [4] = tested on: HEC-1A cell layers
in vitro = details: human, pH 7.4
[5] = ref DrugBank; cited from earlier work
HEC-1A cell layers [6] = assay: Permeability across HEC-1A cell layers stimulated with poly(I:C); details: p > 0.05, ANOVA

C[C@]12CC[C@@H]3c4ccc(O)cc4CC[C@H]3[C@@H]1CC[C@@H]2O [β-estradiol]
BCRP mRNA expression, fold-change ([1]; 72 h hormone stimulation, vs ethanol control, increased): 2.64 ± 0.44 fold | CNT3 mRNA expression, fold-change [2]: 3.70 ± 1.43 fold | MRP3 mRNA expression, fold-change [2]: 2.14 ± 0.30 fold

CN(C)C(=O)CCSC(SCCC(=O)O)c1cccc(/C=C/c2ccc3ccc(Cl)cc3n2)c1 (centres unmarked) [MK571]
Effect on absorptive transfer of darunavir (HEC-1A monolayer; MK571 (50 µM) in donor compartment, apical pH 5.5): reduced the absorptive transfer of darunavir to the level observed at pH 7.5

CC(C)CN(C[C@@H](O)[C@H](Cc1ccccc1)NC(=O)O[C@H]1CO[C@H]2OCC[C@H]21)S(=O)(=O)c1ccc(N)cc1 [darunavir, Darunavir]
Papp A→B at 2 h ([3]; pH 7.4, read-out: Absorptive permeability Papp): 9.66 to 11.2 ×10⁻⁶ cm/s | Papp B→A at 2 h ([3]; pH 7.4, read-out: Secretory permeability Papp): 8.59 to 9.42 ×10⁻⁶ cm/s | % Drug Distribution Apical (HEC-1A cells; 1 μM): 82.90 ± 1.76% | % Drug Distribution Basolateral (HEC-1A cells; 1 μM): 15.13 ± 1.44% | % Drug Distribution Apical (HEC-1A cells; 5 μM): 83.15 ± 2.61% | % Drug Distribution Basolateral (HEC-1A cells; 5 μM): 14.55 ± 1.88% | % Drug Distribution Cell-Associated (HEC-1A cells; 5 μM): 2.55 ± 1.22% | % Drug Distribution Apical (HEC-1A cells; 10 μM): 83.36 ± 2.12% | % Drug Distribution Basolateral (HEC-1A cells; 10 μM): 13.95 ± 1.75% | % Drug Distribution Cell-Associated (HEC-1A cells; 10 μM): 2.70 ± 1.31% | % Drug Distribution Apical (HEC-1A cells; 20 μM): 81.72 ± 1.61% | % Drug Distribution Basolateral (HEC-1A cells; 20 μM): 15.31 ± 1.22% | % Drug Distribution Cell-Associated (HEC-1A cells; 20 μM): 2.97 ± 1.27% | Cell-associated drug (HEC-1A cells) (HEC-1A cells): ≤ 3% | % of darunavir transferred to the receiver compartment, absorptive direction (HEC-1A monolayer; apical pH 5.5, basal pH 7.5, p < 0.001): 30.1 ± 6.0% | % of darunavir transferred to the receiver compartment, absorptive direction (HEC-1A monolayer; apical pH 7.5): 20 ±2.8% | Absorptive permeability on coadministration with dapivirine (HEC-1A barrier model): not altered | Permeabilities on coadministration with tenofovir (HEC-1A barrier model; tenofovir 0–100 µM): no effect | Papp (HEC-1A cell layers [4]): 8.45 ± 0.68 ×10⁻⁶ cm/s | Papp at 2 h, 10 µM (in vitro): 8.24 ± 0.6 ×10⁻⁶ cm/s | logP [5]: 2.82 | Difference in Papp (A-B or B-A), poly(I:C)-stimulated vs unstimulated cell layers (HEC-1A cell layers [6]): no significant differences

IL-8: pro-inflammatory cytokine
Change in expression of drug transporters (panel of 17) ([1]; 72 h stimulation): No changes

C[C@H](Cn1cnc2c(N)ncnc21)OCP(=O)(O)O [tenofovir, Tenofovir]
Papp A→B at 2 h ([3]; pH 7.4, apical to basolateral, over concentration range (tenofovir 0.1–100 µM; darunavir 0.1–20 µM, 0.01% DMSO), read-out: Absorptive permeability Papp): 1.76 to 2.06 ×10⁻⁶ cm/s | Papp B→A at 2 h ([3]; pH 7.4, basolateral to apical, over concentration range (tenofovir 0.1–100 µM; darunavir 0.1–20 µM, 0.01% DMSO), read-out: Secretory permeability Papp): 1.46 to 1.64 ×10⁻⁶ cm/s | efflux ratio at 2 h ([3]; pH 7.4, over concentration range tested, read-out: Efflux ratio (secretory/absorptive)): 0.77 to 0.83 | % Drug Distribution Apical (HEC-1A cells; 0.1 μM): 97.03 ± 0.28% | % Drug Distribution Basolateral (HEC-1A cells; 0.1 μM): 2.63 ± 0.25% | % Drug Distribution Cell-Associated (HEC-1A cells; 0.1 μM): 0.34 ± 0.06% | % Drug Distribution Apical (HEC-1A cells; 1 μM): 96.85 ± 0.29% | % Drug Distribution Basolateral (HEC-1A cells; 1 μM): 2.73 ± 0.24% | % Drug Distribution Cell-Associated (HEC-1A cells; 1 μM): 0.42 ± 0.08% | % Drug Distribution Apical (HEC-1A cells; 10 μM): 96.91 ± 0.27% | % Drug Distribution Basolateral (HEC-1A cells; 10 μM): 2.79 ± 0.25% | % Drug Distribution Cell-Associated (HEC-1A cells; 10 μM): 0.3 ± 0.06% | % Drug Distribution Apical (HEC-1A cells; 100 μM): 96.59 ± 0.41% | % Drug Distribution Basolateral (HEC-1A cells; 100 μM): 2.99 ± 0.36% | % Drug Distribution Cell-Associated (HEC-1A cells; 100 μM): 0.42 ± 0.17% | Recovery from the apical compartment after absorptive permeability assays (HEC-1A cells; % of initial concentration, no Poloxamer): 96–97% | Cell-associated drug (HEC-1A cells) (HEC-1A cells): ≤ 0.5% | Absorptive permeability on coadministration with dapivirine (HEC-1A barrier model): not altered | Absorptive or secretory permeability on coadministration with darunavir (HEC-1A barrier model; darunavir 0–10 µM): did not significantly alter | Papp (HEC-1A cell layers [4]): 1.45 ± 0.21 ×10⁻⁶ cm/s | Papp at 2 h, 10 µM (in vitro): 1.06 ± 0.05 ×10⁻⁶ cm/s | Difference in Papp (A-B or B-A), poly(I:C)-stimulated vs unstimulated cell layers (HEC-1A cell layers [6]): no significant differences

OC[C@@H](O)[C@@H](O)[C@H](O)[C@H](O)CO [mannitol]
Papp A→B at 2 h ([3]; pH 7.4, Absorptive Papp of mannitol, 1% DMSO in donor compartment (initial dapivirine assay)): 2.5 to 2.61 ×10⁻⁶ cm/s | Papp A→B at 2 h ([3]; pH 7.4, Absorptive Papp of mannitol, paracellular marker in the tenofovir permeability assay): 2.09 to 3.1 ×10⁻⁶ cm/s | Papp B→A at 2 h ([3]; pH 7.4, Secretory Papp of mannitol, 1% DMSO in donor compartment (initial dapivirine assay)): 5.1 to 6.81 ×10⁻⁶ cm/s | Papp B→A at 2 h ([3]; pH 7.4, Secretory Papp of mannitol, paracellular marker in the tenofovir permeability assay): 2.7 to 2.85 ×10⁻⁶ cm/s | Papp at 2 h ([3]; pH 7.4, mannitol measured simultaneously in drug permeability assays, read-out: Papp (barrier integrity control)): < 4 ×10⁻⁶ cm/s | Papp (HEC-1A cell layers [4]): 2.23 to 2.47 ×10⁻⁶ cm/s | Papp at 2 h, 10 µM (in vitro): 1.43 to 2.17 ×10⁻⁶ cm/s
